Data reported in patent EP0501375A1 (priority 1991, dated 1992).
*1 amine or outer side, *2 acyl side, *3 side chain or, on linkers, in order; H or OH if unused. Where a SMILES comes first, the peptide text is derived from it. CO = O=C([*:1])[*:2]

Assays:
alkaline protease K-16 [1] = target: T1, alkaline protease K-16 (Shouchella clausii, UniProt Q99405); assay: Effects of metal ions on protease activity; format: biochemical, Bacillus sp. KSM-K16; details: metal salt 1 mM; for Residual Activity: pH 9.5, 30°C for 20 minutes, relative to no metal salt; for effect on activity of the alkaline protease K-16 (in words): 30°C for 20 minutes
Method: A 1 ml portion of 50 mM boric acid-NaOH buffer (pH 10) containing 1% casein was mixed with 0.1 ml of enzyme solution, and the mixture was incubated at 40°C for 10 minutes. The reaction was stopped by adding 2 ml of a solution containing 0.123 M trichloroacetic acid, 0.246 M sodium acetate and 0.369 M acetic acid. After allowing to stand at 30°C for 20 minutes, the resulting mixture was filtered through a filter paper (manufactured by Whatman; No. 2), and the filtrate was checked for its contents of proteolytic products in accordance with the modified Folin-Lowry method. One unit of activity (1 P.U.) was defined as the amount of enzyme which produces 1 mmole of tyrosine per minute.
Effects of various metal ions on the activity of the alkaline protease K-16 were examined. A 20 mM boric acid-NaOH buffer (pH 9.5) solution containing 1 mM of a metal salt was mixed with 3.9 x 10⁻³ P.U. of the alkaline protease K-16, and the mixture was maintained at 30°C for 20 minutes. Thereafter, the thus treated mixture was diluted with 50 mM boric acid-NaOH buffer (pH 10.0) by a factor of 5 to measure residual activity which was then calculated as relative value based on the activity measured in the same manner in the absence of metal salts. […] Also, as is evident from the results described in the foregoing items (5) and (6), thermal stability of this enzyme is improved in the presence of Ca²⁺ TABLE 3

alkaline protease K-16 [2] = target: T1, alkaline protease K-16; assay: biochemical; format: biochemical, Bacillus sp. KSM-K16

T1 sequence (Q99405 112-380): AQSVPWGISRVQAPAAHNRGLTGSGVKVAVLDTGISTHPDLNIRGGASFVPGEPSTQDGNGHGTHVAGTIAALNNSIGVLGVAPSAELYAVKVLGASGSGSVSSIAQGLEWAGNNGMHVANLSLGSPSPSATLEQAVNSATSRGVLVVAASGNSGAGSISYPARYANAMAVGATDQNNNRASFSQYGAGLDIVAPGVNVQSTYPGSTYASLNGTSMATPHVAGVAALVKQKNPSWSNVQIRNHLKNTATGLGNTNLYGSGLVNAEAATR

Structure (SMILES) | Residual Activity (alkaline protease K-16 [1]) [%] | further results
[Cl-].[Cl-].[Co+2] [CoCl₂] | 103 | –
O=C(O)CN(CCN(CC(=O)O)CC(=O)O)CC(=O)O [EDTA] | – | remaining activity at 5000 µM (alkaline protease K-16 [2]; pH 7, read-out: Residual Activity): 107%
[Cl][Hg][Cl] [HgCl₂] | 46 | effect on activity of the alkaline protease K-16 (in words) (alkaline protease K-16 [1]): inhibited
[Ca+2].[Cl-].[Cl-] [CaCl₂] | 103 | –
O=S(=O)([O-])[O-].[Cu+2] [CuSO₄] | 73 | effect on activity of the alkaline protease K-16 (in words) (alkaline protease K-16 [1]): inhibited
[Cl][Pb][Cl] [PbCl₂] | 100 | –
CC(C)C[C@H](NC(=O)[C@@H](NC(=O)N[C@@H](Cc1ccccc1)C(=O)O)[C@@H]1CCN=C(N)N1)C(=O)N[C@H](C=O)Cc1ccccc1 [Chymostatin] | – | Residual Activity (alkaline protease K-16 [2]; pH 7): 34%; effect on activity of the alkaline protease K-16 (in words) (alkaline protease K-16 [2]; pH 7): inhibited
[Cl][Ni][Cl] [NiCl₂] | 103 | –
CC(C)[C@H](NC(=O)[C@H](CCCNC(=N)N)NC(=O)N[C@@H](Cc1ccccc1)C(=O)O)C(=O)N[C@H](C=O)CCCNC(=N)N [Antipain] ({Phe-CO}-Arg-Val-Arg-aldehyde) | – | Residual Activity (alkaline protease K-16 [2]; pH 7): 108%
[Cl-].[Cl-].[Zn+2] [ZnCl₂] | 106 | –
O=[N+]([O-])[O-].[Ag+] [AgNO₃] | 86 | –
